Assay results from publication PMC9570898, “Comparing Variants of the Cell-Penetrating Peptide sC18 to Design Peptide-Drug Conjugates” (Molecules, 2022).
No end group written: not given here.

Tests used:
[1] = system: HeLa cells; assay: Cellular uptake by flow cytometry in HeLa cells; type: cell-based, human; details: 1 and 10 µM CF-labeled peptide, 30 min, 37 °C, serum-free medium, triplicate n = 3
Protocol: Monolayer cellular uptake was quantified using flow cytometry. Cells were seeded onto a 24-well plate (HeLa: 90,000, HEK293: 100,000 and MCF-7 130,000 cells per well) and grown to 80–90% confluency. Then, cells were incubated with the labeled peptides/conjugates in a serum-free medium at 37 °C for various incubation times, and subsequently washed twice with PBS and detached with indicator-free trypsin resuspended in an indicator-free serum-containing medium. The cell suspension was transferred into a 96-well FACS plate and fluorescence was then measured by a Guava easyCyte flow cytometer (Merck, Darmstadt, Germany).The blue laser was used for all measurements, FSC (1137–1538), SSC (3020–4086), Grn-B (647–875) and Red-B (694–939). Cellular autofluorescence of untreated control cells was subtracted.

[2] = system: HEK-293 spheroids; assay: Flow cytometry of HEK-293 spheroids; type: cell-based, human; details: 10 µM CF-labeled peptides, 30 min or 1 h
Protocol: For the preparation and seeding of spheroids, cells were washed and trypsinized as described above. Cells were transferred into a fresh 15 mL centrifuge tube and centrifuged for 5 min at 300× g and rt. The supernatant was removed carefully and the pellet was resuspended in an appropriate medium supplemented with FBS. Cells were counted and a cell mixture was prepared, which would be sufficient for 100 drops (3 mL). Within this mixture a total amount of 1.5 × 10^6 cells (HEK-293 and HeLa cells) and 20% (v/v) methylcellulose (1.2 mg/mL) were required. The missing volume was filled up with an appropriate medium containing FBS; 30 μL drops were pipetted into the inverted lid of a petri dish (15,000 cells per drop), the bottom was covered with PBS and spheroids were grown in hanging drops for two or three days at 37 °C and 5% CO2, respectively.
For flow cytometry studies with tumor spheroids, the spheroids were prepared and grown as described above (4.7). […] After the spheroids started to fall apart, 850 μL of medium with FBS (indicator free) was added and the spheroids were resuspended to generate a homogenous cell suspension; 200 μL of each sample were transferred into a fresh round-bottom 96-well plate and analyzed on a Guava® easyCyte flow cytometer (Merck, Darmstadt, Germany). […]

Substance: RLRKLLRKFLRK-NH2 [sC18*^R,L]
- cellular uptake [1]: highly significant and enhanced internalization
- accumulation in spheroids [2]: most efficient variants
